The source made the active and inactive calls. The calls are words filed in the database; no cut-off is given here.
Key:
[1] = Metabolic stability in mouse liver microsomes assessed as parent compound remaining; format: ADME, Microsome
[2] = Metabolic stability in human liver microsomes assessed as parent compound remaining; format: ADME, Microsome
[3] = biological target: Diacylglycerol kinase alpha (Homo sapiens, UniProt P23743); assay: Inhibition of human DGK alpha using 1, 2-Dilauroyl-sn-glycerol as substrate by ADP-Glo assay
Chain of Diacylglycerol kinase alpha (P23743 whole entry): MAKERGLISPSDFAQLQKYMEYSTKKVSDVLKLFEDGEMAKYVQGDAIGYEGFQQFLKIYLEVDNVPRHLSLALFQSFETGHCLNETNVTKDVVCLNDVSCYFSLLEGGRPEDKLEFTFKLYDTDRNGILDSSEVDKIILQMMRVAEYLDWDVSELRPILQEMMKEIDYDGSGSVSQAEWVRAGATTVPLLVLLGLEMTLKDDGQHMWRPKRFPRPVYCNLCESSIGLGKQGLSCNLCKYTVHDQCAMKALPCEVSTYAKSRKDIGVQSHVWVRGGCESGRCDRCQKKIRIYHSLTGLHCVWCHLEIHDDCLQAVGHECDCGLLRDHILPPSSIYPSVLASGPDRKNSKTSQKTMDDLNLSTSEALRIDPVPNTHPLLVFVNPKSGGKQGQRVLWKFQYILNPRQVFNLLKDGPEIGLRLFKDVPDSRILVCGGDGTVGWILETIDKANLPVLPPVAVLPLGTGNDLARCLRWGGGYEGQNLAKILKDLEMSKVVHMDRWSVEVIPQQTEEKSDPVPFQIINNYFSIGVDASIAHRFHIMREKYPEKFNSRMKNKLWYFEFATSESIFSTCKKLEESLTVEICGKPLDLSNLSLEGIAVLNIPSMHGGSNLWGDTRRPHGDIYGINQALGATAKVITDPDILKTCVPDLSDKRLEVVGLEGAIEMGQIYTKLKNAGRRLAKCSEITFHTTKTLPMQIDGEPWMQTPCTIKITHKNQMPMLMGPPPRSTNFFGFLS

[4] = biological target: Diacylglycerol kinase beta (Homo sapiens, UniProt Q9Y6T7); assay: Inhibition of human DGK beta using 1, 2-Dilauroyl-sn-glycerol as substrate by ADP-Glo assay
[5] = biological target: Diacylglycerol kinase gamma (Homo sapiens, UniProt P49619); assay: Inhibition of human DGK gamma using 1, 2-Dilauroyl-sn-glycerol as substrate by ADP-Glo assay
Chain of Diacylglycerol kinase gamma (P49619 whole entry): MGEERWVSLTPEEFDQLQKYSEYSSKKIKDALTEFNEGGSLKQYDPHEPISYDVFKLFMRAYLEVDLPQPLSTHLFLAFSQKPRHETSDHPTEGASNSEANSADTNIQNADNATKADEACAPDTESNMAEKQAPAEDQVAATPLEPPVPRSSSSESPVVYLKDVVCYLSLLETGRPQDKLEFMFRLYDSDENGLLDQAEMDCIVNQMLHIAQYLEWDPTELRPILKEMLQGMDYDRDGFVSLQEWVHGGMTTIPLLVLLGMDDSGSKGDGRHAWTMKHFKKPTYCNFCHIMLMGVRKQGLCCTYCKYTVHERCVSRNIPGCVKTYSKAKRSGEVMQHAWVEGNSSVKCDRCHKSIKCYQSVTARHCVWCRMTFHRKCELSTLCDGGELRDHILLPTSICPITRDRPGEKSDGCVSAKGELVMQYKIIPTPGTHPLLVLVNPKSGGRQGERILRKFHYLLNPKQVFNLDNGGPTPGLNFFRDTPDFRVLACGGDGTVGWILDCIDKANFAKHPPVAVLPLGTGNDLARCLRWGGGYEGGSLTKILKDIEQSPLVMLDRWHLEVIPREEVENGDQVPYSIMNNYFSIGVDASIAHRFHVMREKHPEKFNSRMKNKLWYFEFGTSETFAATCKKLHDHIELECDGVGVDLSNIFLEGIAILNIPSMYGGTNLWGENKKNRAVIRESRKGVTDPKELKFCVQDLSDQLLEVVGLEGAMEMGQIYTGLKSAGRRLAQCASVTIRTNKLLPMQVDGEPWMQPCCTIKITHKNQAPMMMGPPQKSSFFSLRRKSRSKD

[6] = biological target: T1, Diacylglycerol kinase kappa (Homo sapiens, UniProt Q5KSL6); assay: Inhibition of human DGK kappa using 1, 2-Dilauroyl-sn-glycerol as substrate by ADP-Glo kinase assay
T1 sequence (Q5KSL6 whole entry): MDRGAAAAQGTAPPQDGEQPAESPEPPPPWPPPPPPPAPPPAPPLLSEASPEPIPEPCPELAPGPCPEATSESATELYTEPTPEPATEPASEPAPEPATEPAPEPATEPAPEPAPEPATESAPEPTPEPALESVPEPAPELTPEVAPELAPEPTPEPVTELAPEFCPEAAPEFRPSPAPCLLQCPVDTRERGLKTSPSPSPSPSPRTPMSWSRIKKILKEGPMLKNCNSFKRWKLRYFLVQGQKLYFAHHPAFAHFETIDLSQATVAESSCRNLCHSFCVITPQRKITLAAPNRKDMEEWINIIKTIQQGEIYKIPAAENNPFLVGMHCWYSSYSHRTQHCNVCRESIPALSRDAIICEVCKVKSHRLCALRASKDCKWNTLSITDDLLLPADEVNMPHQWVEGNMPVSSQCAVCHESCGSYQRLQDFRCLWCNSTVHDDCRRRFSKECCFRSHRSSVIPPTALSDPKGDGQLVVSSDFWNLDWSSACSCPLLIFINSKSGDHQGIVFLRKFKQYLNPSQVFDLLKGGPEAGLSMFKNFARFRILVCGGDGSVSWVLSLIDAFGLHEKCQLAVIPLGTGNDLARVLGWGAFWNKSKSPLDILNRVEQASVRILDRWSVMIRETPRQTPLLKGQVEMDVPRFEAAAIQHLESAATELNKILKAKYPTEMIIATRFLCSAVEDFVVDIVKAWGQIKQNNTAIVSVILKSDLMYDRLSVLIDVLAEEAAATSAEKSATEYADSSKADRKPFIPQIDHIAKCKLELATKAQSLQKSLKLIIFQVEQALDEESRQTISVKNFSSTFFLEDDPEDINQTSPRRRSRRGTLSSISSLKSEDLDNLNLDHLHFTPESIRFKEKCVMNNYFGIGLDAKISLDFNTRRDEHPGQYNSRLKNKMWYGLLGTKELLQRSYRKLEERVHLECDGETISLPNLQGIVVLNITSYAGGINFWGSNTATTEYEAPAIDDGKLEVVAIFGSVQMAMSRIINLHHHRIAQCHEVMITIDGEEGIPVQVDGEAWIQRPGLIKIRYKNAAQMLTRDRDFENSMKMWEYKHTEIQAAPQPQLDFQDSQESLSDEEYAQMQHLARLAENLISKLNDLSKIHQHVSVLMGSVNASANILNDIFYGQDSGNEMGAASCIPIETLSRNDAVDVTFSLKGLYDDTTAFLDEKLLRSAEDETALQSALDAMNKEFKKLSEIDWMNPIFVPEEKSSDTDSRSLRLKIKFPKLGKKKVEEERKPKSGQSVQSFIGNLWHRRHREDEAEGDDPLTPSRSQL

[7] = biological target: Diacylglycerol kinase zeta (Homo sapiens, UniProt Q13574); assay: Inhibition of human DGK zeta using 1, 2-Dilauroyl-sn-glycerol as substrate by ADP-Glo kinase assay
Chain of Diacylglycerol kinase zeta (Q13574 whole entry): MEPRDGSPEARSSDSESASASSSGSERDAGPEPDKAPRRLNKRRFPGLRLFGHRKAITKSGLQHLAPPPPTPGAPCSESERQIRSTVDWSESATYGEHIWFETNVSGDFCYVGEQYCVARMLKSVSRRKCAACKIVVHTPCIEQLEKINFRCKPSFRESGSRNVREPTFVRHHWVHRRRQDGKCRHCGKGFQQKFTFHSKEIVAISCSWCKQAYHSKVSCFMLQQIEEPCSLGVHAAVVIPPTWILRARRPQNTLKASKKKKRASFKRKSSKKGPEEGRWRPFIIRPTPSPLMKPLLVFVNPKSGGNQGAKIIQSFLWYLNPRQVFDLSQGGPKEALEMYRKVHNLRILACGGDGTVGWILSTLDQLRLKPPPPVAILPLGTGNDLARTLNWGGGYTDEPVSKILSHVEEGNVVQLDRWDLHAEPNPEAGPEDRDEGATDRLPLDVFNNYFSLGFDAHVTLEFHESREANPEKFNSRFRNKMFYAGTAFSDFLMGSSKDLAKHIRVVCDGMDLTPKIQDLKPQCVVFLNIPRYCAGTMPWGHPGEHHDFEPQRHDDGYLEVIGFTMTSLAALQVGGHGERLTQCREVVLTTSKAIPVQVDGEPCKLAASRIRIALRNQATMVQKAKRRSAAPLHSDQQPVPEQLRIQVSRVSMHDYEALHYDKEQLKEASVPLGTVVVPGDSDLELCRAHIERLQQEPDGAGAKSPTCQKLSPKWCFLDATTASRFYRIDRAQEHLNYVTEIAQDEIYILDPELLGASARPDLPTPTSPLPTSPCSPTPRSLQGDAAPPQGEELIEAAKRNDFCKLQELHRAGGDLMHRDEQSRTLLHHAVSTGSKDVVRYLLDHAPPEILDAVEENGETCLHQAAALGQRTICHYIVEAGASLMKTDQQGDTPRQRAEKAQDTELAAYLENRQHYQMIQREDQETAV

[8] = biological target: Diacylglycerol kinase iota (Homo sapiens, UniProt O75912); assay: Inhibition of human DGK iota using 1, 2-Dilauroyl-sn-glycerol as substrate by ADP-Glo kinase assay
Chain of Diacylglycerol kinase iota (O75912 whole entry): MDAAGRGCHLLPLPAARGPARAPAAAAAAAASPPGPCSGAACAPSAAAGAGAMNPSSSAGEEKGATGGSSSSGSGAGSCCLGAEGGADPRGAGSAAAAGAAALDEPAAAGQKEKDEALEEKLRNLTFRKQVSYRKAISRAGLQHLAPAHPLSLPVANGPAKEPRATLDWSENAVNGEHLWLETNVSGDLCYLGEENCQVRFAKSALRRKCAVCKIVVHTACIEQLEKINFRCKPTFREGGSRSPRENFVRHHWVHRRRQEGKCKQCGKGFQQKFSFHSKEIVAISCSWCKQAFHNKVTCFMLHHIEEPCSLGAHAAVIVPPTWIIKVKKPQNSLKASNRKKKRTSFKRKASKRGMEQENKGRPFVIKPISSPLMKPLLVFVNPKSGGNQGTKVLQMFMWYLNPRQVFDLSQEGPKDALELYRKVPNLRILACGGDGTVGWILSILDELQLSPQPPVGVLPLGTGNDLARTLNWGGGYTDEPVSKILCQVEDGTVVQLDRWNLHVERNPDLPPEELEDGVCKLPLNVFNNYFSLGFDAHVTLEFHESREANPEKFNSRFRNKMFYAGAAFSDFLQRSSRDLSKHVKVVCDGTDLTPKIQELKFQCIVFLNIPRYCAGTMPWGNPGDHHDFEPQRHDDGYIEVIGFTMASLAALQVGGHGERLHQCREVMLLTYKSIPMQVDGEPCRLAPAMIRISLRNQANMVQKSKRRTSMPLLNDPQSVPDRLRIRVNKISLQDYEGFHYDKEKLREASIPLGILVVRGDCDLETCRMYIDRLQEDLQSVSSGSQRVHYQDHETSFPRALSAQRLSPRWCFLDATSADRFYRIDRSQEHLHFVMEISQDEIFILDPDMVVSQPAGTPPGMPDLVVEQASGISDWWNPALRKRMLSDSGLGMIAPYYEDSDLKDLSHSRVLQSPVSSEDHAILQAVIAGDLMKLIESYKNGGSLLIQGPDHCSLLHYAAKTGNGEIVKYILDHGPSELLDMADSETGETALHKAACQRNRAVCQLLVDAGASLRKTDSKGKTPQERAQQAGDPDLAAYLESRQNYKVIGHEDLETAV

Mus musculus [9] = assay: Immunostimulatory activity in OT-1 mouse model assessed as increase in activated effector T-cells at 10 mg/kg measured after 24 hrs by flow cytometry analysis; format: functional, organism-based
Mus musculus [10] = organism: Mus musculus; assay: Immunostimulatory activity in OT-1 mouse model assessed as increase in activated effector T-cells measured after 24 hrs in presence of SIINFEKL antigen by flow cytometry analysis; format: functional, organism-based; settings: dose 1-10 mg/kg
[11] = AUClast in C57BL6 mouse at 1 mg/kg, iv administered as bolus dose measured upto 72 hrs by LC/MS/MS analysis; format: ADME, organism-based; design: dose 1 mg/kg, time < 72 hrs, route iv; settings: in vivo
[12] = Half life in C57BL6 mouse at 1 mg/kg, iv administered as bolus dose measured upto 72 hrs by LC/MS/MS analysis; format: ADME, organism-based; settings: in vivo
[13] = Clearance in C57BL6 mouse at 1 mg/kg, iv administered as bolus dose measured upto 72 hrs by LC/MS/MS analysis; format: ADME, organism-based; settings: in vivo
[14] = Volume of distribution at steady state in C57BL6 mouse at 1 mg/kg, iv administered as bolus dose measured upto 72 hrs by LC/MS/MS analysis; format: ADME, organism-based; settings: in vivo, read-out: Vdss
[15] = Cmax in C57BL6 mouse at 5 mg/kg, po administered as bolus dose measured upto 72 hrs by LC/MS/MS analysis; format: ADME, organism-based; design: dose 5 mg/kg, time < 72 hrs, route po; settings: in vivo
[16] = Tmax in C57BL6 mouse at 5 mg/kg, po administered as bolus dose measured upto 72 hrs by LC/MS/MS analysis; format: ADME, organism-based; settings: in vivo
[17] = AUClast in C57BL6 mouse at 5 mg/kg, po administered as bolus dose measured upto 72 hrs by LC/MS/MS analysis; format: ADME, organism-based; design: dose 5 mg/kg, time < 72 hrs, route po; settings: in vivo
[18] = Oral bioavailability in C57BL6 mouse at 5 mg/kg administered as bolus dose measured upto 72 hrs by LC/MS/MS analysis; format: ADME, organism-based; settings: in vivo
[19] = Inhibition of DGK in human whole blood cell assessed as increase in IFNgamma level incubated for 1 hr followed by anti-human CD3/ antiCD28 mAB stimulation and measure after 24 hrs by AlphaLISA assay; format: tissue-based
[20] = Inhibition of DGK in human whole blood cell assessed as increase in pERK level incubated for 1 hr followed by anti-human CD3 stimulation and measure after 15 mins by AlphaLISA assay; format: tissue-based
[21] = Inhibition of DGK in mouse T cell assessed as increase in IFNgamma level incubated for 1 hr by AlphaLISA assay; format: cell-based
Raji [22] = assay: IL2 production in PD-L1 positive human Raji cells measured after 24 hrs by Cell titer glo assay
Raji [23] = assay: IL2 production in PD-L1 negative human Raji cells measured after 24 hrs by Cell titer glo assay
[24] = Induction of proliferation of human CD8-positive T cell measured after 24 hrs by Cell titer glo assay

Stability [1]: 99%
Stability [2]: 90%
IC50 [3]: 5 nM
IC50 [4]: 1000 nM
IC50 [5]: 680 nM
IC50 [6]: 4600 nM
IC50 [7]: 2 nM
IC50 [8]: 3 nM
AUC(0-t) at 72 h [11]: 14.8 µM·h
half-life [12]: 22.5 h
clearance [13]: 1.9 mL/min/kg
Vd [14]: 3.9 L/kg
Cmax [15]: 1080 nM
Tmax [16]: 3 h
AUC(0-t) at 72 h [17]: 48 µM·h
bioavailability [18]: 65%
EC50 [19]: 280 nM
EC50 [20]: 520 nM
EC50 [21]: 340 nM
EC50 (Raji [22]): 37 nM
EC50 (Raji [23]): 37 nM
SMILES: Cn1c(=O)c([N+](=O)[O-])c(N2CCN(C(c3ccc(F)cc3)c3ccc(F)cc3)CC2)c2nc(C#N)ccc21
Activity (Mus musculus [9]): inactive
Activity (Mus musculus [10]): Dose-Dependent Effect
EC50 [24]: 65 nM

— ChEMBL document CHEMBL5360601, “Discovery of Potent, Dual-Inhibitors of Diacylglycerol Kinases Alpha and Zeta Guided by Phenotypic Optimization” (ACS Med Chem Lett, 2023)
